From patent US6545008B1, “Pyrimidine derivatives and processes for the preparation thereof” (Yuhan Corporation, priority 1998, dated 2003)
Where a name gives a salt, the structure may show the parent alone.

The molecules below were run against T1, proton pump (H+/K+-ATPase) (UniProt P19156) (assay: Inhibition of proton pump (H+/K+-ATPase) activity, gastric vesicle enzyme source). Details: pH 6.4, 37° C., 30 min preincubation, linear regression over 5 concentrations, read-out: IC50, inhibitory effects on proton pump (H+/K+-ATPase) activity.
T1 construct: The gastric vesicle as an enzyme source was prepared by the same method as in the Experiment 1—1 of WO 94/14795
Assay type: biochemical
Procedure: Test Example 1: Inhibition of proton pump (H^+/K^+-ATPase) activity
The gastric vesicle as an enzyme source was prepared by the same method as in the Experiment 1—1 of WO 94/14795. Further, the inhibitory effect of proton pump activity was measured by the same method as in Experiment 1-2 of WO 94/14795.
Namely, the proton pump activity stimulated by Mg^++ was used as a negative control group, and the activity stimulated by Mg^++ and K^+ was used as a positive control group. Omeprazole was used as the control compound.
Test tubes were divided into 4 groups: Group 1 as negative control group (n=3), Group 2 as positive control group (n=3), Group 3 (n=5×2) to be administered with the compound of the present invention and Group 4 (n=5×2) to be administered with the control compound.
The inhibitory effects of Group 3 and 4 on proton pump activity were measured by employing the compounds prepared in Examples and omeprazole, respectively, each of which was dissolved in dimethyl sulfoxide (DMSO) at 5 different concentrations.
To each of Groups 1, 2, 3, and 4 was added 0.1 ml of magnesium chloride (4 mM) dissolved in 40 mM Tris-HCl buffer (pH 6.4) and 100 μg of enzyme source. The 50 μl of potassium chloride (60 mM) and 50 μl of ammonium chloride (6 mM) dissolved in 40 mM Tris-HCl buffer (pH 6.4) were added to all groups except for Group 1.
10 μl of dimethyl sulfoxide was added to each of Group 1 and 2; and to Group 3 was added […] of dimethyl sulfoxide solution prepared by dissolving compound of Example at 5 different concentrations (n=5×2). To Group 4, was added 10 μl of the solution prepared by dissolving omeprazole in dimethyl sulfoxide at 5 different concentrations (40, 20, 10, 5, 2.5 μM) (n=5×2). […] Tris-HCl buffer (pH 6.4) was added thereto so as to make the total volume 400 μl.
Thereafter the test tubes of each Group were placed at 37° C. for 30 minutes for the preincubation. ATP solution (6.6 mM) was added until the total volume became 500 μl. After the reaction was carried out at 37° C. for 30 minutes, 25% cold trichloroactic acid was added to terminate the enzyme reaction. The released inorganic phosphorous was measured by an automatic analyzer (Express 550, Corning).
The difference between Group 1 and Group 2 represents the proton pump activity activated by K^+ only. The IC50s of Group 3 and 4 were calculated using the Linear Regression method. The concentrations of the test compounds inhibiting 50% of the proton pump activity are represented as IC50 in Table 1.

Going from `Cc1cc(F)ccc1Nc1nc(C)c(C)c(N2CCc3cc(F)ccc3C2C)n1` (centres unmarked) [Example 17, 5,6-dimethyl-2-(2-methyl-4-fluorophenylamino)-4-(1-methyl-6-fluoro-1,2,3,4-tetrahydroisoquinolin-2-yl)pyrimidine hydrochloride] to `Cc1cc(F)ccc1Nc1nc(C)c(C)c(N2CCc3ccc(F)cc3C2C)n1` (centres unmarked) [Example 6, 5,6-dimethyl-2-(2-methyl-4-fluorophenylamino)-4-(1-methyl-7-fluoro-1,2,3,4-tetrahydroisoquinolin-2-yl)pyrimidine hydrochloride], the IC50 rises from 200 nM to 300 nM (1.5-fold).

First: Cc1c(CF)nc(Nc2ccc(F)cc2)nc1N1CCc2ccccc2C1C (centres unmarked) [Example 24, 5-methyl-6-fluoromethyl-2-(4-fluorophenylamino)-4-(1-methyl-1,2,3,4-tetrahydroisoquinolin-2-yl)-pyrimidine hydrochloride]
Second: Cc1nc(Nc2ccc(F)cc2)nc(N2CCc3ccccc3C2C)c1CF (centres unmarked) [Example 25, 5-fluoromethyl-6-methyl-2-(4-fluorophenylamino)-4-(1-methyl-1,2,3,4-tetrahydroisoquinolin-2-yl)-pyrimidine hydrochloride]
The IC50 of the first is 4.6-fold lower: 900 nM for the first, 4100 nM for the second. The first is the more potent here.

First: Cc1nc(Nc2ccc(F)c(F)c2)nc(N2CCc3ccccc3C2C)c1C (centres unmarked) [Example 1, 5,6-dimethyl-2-(3,4-difluorophenylamino)-4-(1-methyl-1,2,3,4-tetrahydroisoquinolin-2-yl)pyrimidine hydrochloride]
Second: Cc1nc(Nc2ccc(F)c(F)c2)nc(N2CCc3ccc(F)cc3C2C)c1C (centres unmarked) [Example 7, 5,6-dimethyl-2-(3,4-difluorophenylamino)-4-(1-methyl-7-fluoro-1,2,3,4-tetrahydroisoquinolin-2-yl)pyrimidine hydrochloride]
The IC50 of the first is 1.6-fold lower: 1600 nM for the first, 2600 nM for the second.

`Cc1nc(Nc2ccc(F)cc2F)nc(N2CCc3ccc(F)cc3C2C)c1C` (centres unmarked) [Example 8, 5,6-dimethyl-2-(2,4-difluorophenylamino)-4-(1-methyl-7-fluoro-1,2,3,4-tetrahydroisoquinolin-2-yl)pyrimidine hydrochloride] and `Cc1nc(Nc2ccc(F)cc2F)nc(N2CCc3cc(F)ccc3C2C)c1C` (centres unmarked) [Example 19, 5,6-dimethyl-2-(2,4-difluorophenylamino)-4-(1-methyl-6-fluoro-1,2,3,4,-tetrahydroisoquinolin-2-yl)pyrimidine hydrochloride] are within 1.5-fold of each other in IC50: 700 nM for the first, 1000 nM for the second.

First: Cc1nc(Nc2ccccc2F)nc(N2CCc3ccc(F)cc3C2C)c1C (centres unmarked) [Example 11, 5,6-dimethyl-2-(2-fluorophenylamino)-4-(1-methyl-7-fluoro-1,2,3,4-tetrahydroisoquinolin-2-yl)pyrimidine hydrochloride]
Second: Cc1nc(Nc2ccc(F)cc2F)nc(N2CCc3ccccc3C2C)c1C (centres unmarked) [Example 2, 5,6-dimethyl-2-(2,4-difluorophenylamino)-4-(1-methyl-1,2,3,4-tetrahydroisoquinolin-2-yl)pyrimidine hydrochloride]
The IC50 of the first is 2-fold lower: 1900 nM for the first, 3800 nM for the second.

`Cc1nc(Nc2ccc(F)cc2F)nc(N2CCc3c(Cl)cccc3C2C)c1C` (centres unmarked) [Example 39, 5,6-dimethyl-2-(2,4-difluorophenylamino)-4-(1-methyl-5-chloro-1,2,3,4-tetrahydroisoquinolin-2-yl)pyrimidine hydrochloride] and `Cc1nc(Nc2ccc(F)cc2)nc(N2CCc3c(Cl)cccc3C2C)c1C` (centres unmarked) [Example 35, 5,6-dimethyl-2-(4-fluorophenylamino)-4-(1-methyl-5-chloro-1,2,3,4-tetrahydroisoquinolin-2-yl)pyrimidine hydrochloride] are the same in IC50: 900 nM for the first, 900 nM for the second.

Compared with `Cc1nc(Nc2ccc(F)cc2)nc(N2CCc3cc(F)ccc3C2C)c1C` (centres unmarked) [Example 14, 5,6-dimethyl-2-(4-fluorophenylamino)-4-(1-methyl-6-fluoro-1,2,3,4-tetrahydroisoquinolin-2-yl)pyrimidine hydrochloride], `Cc1nc(Nc2ccc(Cl)cc2)nc(N2CCc3cc(F)ccc3C2C)c1C` (centres unmarked) [Example 20, 5,6-dimethyl-2-(4-chlorophenylamino)4-(1-methyl-6-fluoro-1,2,3,4-tetrahydroisoquinolin-2-yl)pyrimidine hydrochloride] is 1.7-fold higher in IC50: 700 nM for the first, 1200 nM for the second. The first is the more potent here.

`Cc1nc(Nc2ccc(Cl)cc2)nc(N2CCc3ccc(F)cc3C2C)c1C` (centres unmarked) [Example 9, 5,6-dimethyl-2-(4-chlorophenylamino)-4-(1-methyl-7-fluoro-1,2,3,4-tetrahydroisoquinolin-2-yl)pyrimidine hydrochloride] and `Cc1nc(Nc2ccccc2)nc(N2CCc3ccc(F)cc3C2C)c1C` (centres unmarked) [Example 4, 5,6-dimethyl-2-phenylamino-4-(1-methyl-7-fluoro-1,2,3,4-tetrahydroisoquinolin-2-yl)pyrimidine hydrochloride] are within 1.5-fold of each other in IC50: 900 nM for the first, 1000 nM for the second.

`Cc1nc(Nc2ccc(F)cc2)nc(N2CCc3ccccc3C2CF)c1C` (centres unmarked) [Example 26, 5,6-dimethyl-2-(4-fluorophenylamino)-4-(1-fluoromethyl-1,2,3,4-tetrahydroisoquinolin-2-yl)pyrimidine hydrochloride] and `Cc1nc(Nc2cccc(F)c2)nc(N2CCc3ccc(F)cc3C2C)c1C` (centres unmarked) [Example 12, 5,6-dimethyl-2-(3-fluorophenylamino)4-(1-methyl-7-fluoro-1,2,3,4-tetrahydroisoquinolin-2-yl)pyrimidine hydrochloride] are within 1.5-fold of each other in IC50: 3700 nM for the first, 3200 nM for the second.

Compared with `COc1ccc2[nH]c([S+]([O-])Cc3ncc(C)c(OC)c3C)nc2c1` (centres unmarked) [Omeprazole, reference compound], `Cc1ccccc1Nc1nc(C)c(C)c(N2CCc3ccc(F)cc3C2C)n1` (centres unmarked) [Example 5, 5,6-dimethyl-2-(2-methylphenylamino)-4-(1-methyl-7-fluoro-1,2,3,4-tetrahydroisoquinolin-2-yl)pyrimidine hydrochloride] is 19-fold lower in IC50: 11500 nM for the first, 600 nM for the second. The second is the more potent here.
